Experimental data reported in patent publication US4892947A, “3(2H)Pyridazinone, process for its preparation and anti-allergic agent containing it” (Nissan Chemical Industries Ltd., priority 1985, dated 1990).
Where a name gives a salt, the structure may show the parent alone.

tested on: LTD4; experiment: LTD4 antagonism in isolated guinea-pig trachea (method (i)); type: cell-based; details: 10^-5 g/ml test compound, 5 min prior to LTD4 (2×10^-8 g/ml), hydrochloride
Procedure: (i) LTC4 and LTD4 antagonisms in guinea-pig trachea
Antagonisms for LTC4 and LTD4 were determined in isolated guinea-pig trachea prepared as spiral strip. Tracheal preparations were suspended under 1 g tension in 10 ml organ baths and they were incubated for 1 hr prior to use. Contractile responses to LTC4 (2×10^-8 g/ml) and LTD4 (2×10^-8 g/ml) were obtained after the maximal response to histamine (10^-4 M). Test compounds dissolved in 100% dimethyl sulfoxide were added to the organ baths (final concentration of 10^-5 g/ml or 10^-6 g/ml) 5 min prior to LTC4 and LTD4 addition, and then contractile responses to LTC4 and LTD4 were compared with those of control which was obtained from a paired trachea in the absence of test compounds. LTC4 - and LTD4 -induced contractions were expressed as a percentage of the maximal response to histamine. The antagonism was determined as follows:
(§1) Antagonism (%)=(1.0-% contraction in test/% contraction in control)×100

Structure (SMILES) | LTD4 antagonism (%)
COc1ccc(CNc2cnn(CCN(C)C)c(=O)c2Cl)cc1OC [Compound No. 9, 4-Chloro-5-(3,4-dimethoxybenzylamino)-2-(2-N,N-dimethylaminoethyl)-3(2H)pyridazinone hydrochloride] | 26

same assay, conditions: Cavia porcellus, 5 min, 10^-5 g/ml test compound, 5 min prior to LTD4 (2×10^-8 g/ml)

Structure (SMILES) | inhibition at 10 µg/mL [%]
CC(C)c1ccc(CNc2cnn(C)c(=O)c2Cl)cc1 [Compound No. 1] | 49
C=CCn1ncc(NCc2ccc(Cl)cc2)c(Cl)c1=O [Compound No. 2] | 93
CCOc1cccc(CNc2cnn(C)c(=O)c2Cl)c1 [Compound No. 4] | 49
COc1ccc(CNc2cnn(CCN(C)C)c(=O)c2Cl)cc1OC [Compound No. 8, 4-Chloro-5-(3,4-dimethoxybenzylamino)-2-(2-N,N-dimethylaminoethyl)-3(2H)pyridazinone] | 36
CCCOc1cc(CNc2cnn(C)c(=O)c2Cl)ccc1OC [Compound No. 12] | 73
CCCCCOc1cc(CNc2cnn(CCC(=O)OC(C)(C)C)c(=O)c2Cl)ccc1OC [Compound No. 16, 4-Chloro-5-(3-n-pentyloxy-4-methoxybenzylamino)-2-{2-(t-butyloxycarbonyl)ethyl}-3(2H)pyridazinone] | 24
CCCOc1cc(CNc2cn[nH]c(=O)c2Cl)ccc1OC [Compound No. 32] | 100
CCCOc1cccc(CNc2cnn(C)c(=O)c2Cl)c1 [compound 5] | 71
C=CCn1ncc(NCc2ccc(OC)c(OC)c2)c(Cl)c1=O [compound 6] | 53
Cn1ncc(NCc2cccc(OCc3ccccc3)c2)c(Cl)c1=O [compound 7] | 53
COc1ccc(CNc2cnn(CC(F)(F)F)c(=O)c2Cl)cc1OC [compound 11] | 47
CCCCCOc1cc(CNc2cnn(CCO)c(=O)c2Cl)ccc1OC [compound 14] | 35
CCCCCOc1cc(CNc2cnn(CCCO)c(=O)c2Cl)ccc1OC [compound 15] | 51
CCCCCOc1cc(CNc2cnn(CC(=O)O)c(=O)c2Cl)ccc1OC [compound 17] | 20
CCCCCOc1cc(CNc2cnn(CCC(=O)O)c(=O)c2Cl)ccc1OC [compound 18] | 18
COc1cc(CNc2cnn(C)c(=O)c2Cl)cc(OC)c1OC [compound 19] | 22
COc1cc(CNc2cnn(CCCO)c(=O)c2Cl)cc(OC)c1OC [compound 20] | 19
COc1ccc(CNc2cnn(CCN(C)C)c(=O)c2Cl)cc1O [compound 21] | 20
C=CCn1ncc(NCc2ccc(SC)cc2)c(Cl)c1=O [compound 22] | 72
CCCCC/C=C\c1ccc(CNc2cnn(CC(=O)O)c(=O)c2Cl)cc1 [compound 23] | 31
CCCCOC(=O)c1ccc(CNc2cnn(C)c(=O)c2Cl)cc1 [compound 24] | 43
CN(C)c1ccc(CNc2cn[nH]c(=O)c2Cl)cc1 [compound 25] | 63
CCN(CC)c1ccc(CNc2cnn(C)c(=O)c2Cl)cc1 [compound 26] | 46
Cn1ncc(NCc2ccc(C(=O)O)cc2)c(Cl)c1=O [compound 27] | 20
COc1ccc(CNc2cn[nH]c(=O)c2Cl)cc1 [compound 28] | 67
CCCOc1cccc(CNc2cn[nH]c(=O)c2Br)c1 [compound 29] | 61
CCCOc1cc(CNc2cn[nH]c(=O)c2Br)ccc1OC [compound 30] | 100
CCCOc1cccc(CNc2cn[nH]c(=O)c2Cl)c1 [compound 31] | 51

same assay, conditions: Cavia porcellus, 5 min, 10^-6 g/ml test compound, Test method (i) (asterisk in Table 4), 5 min prior to LTD4

Structure (SMILES) | inhibition at 1 µg/mL [%]
CCCOc1cc(CNc2cn[nH]c(=O)c2Cl)ccc1OC [Compound No. 32] | 64
CCCCCOc1cc(CNc2cn[nH]c(=O)c2Cl)ccc1OC [Compound No. 37] | 87
CCCCCOc1cc(CNc2cn[nH]c(=O)c2Br)ccc1OC [Compound No. 39, 4-Bromo-5-(3-n-pentyloxy-4-methoxybenzylamino)-3(2H)-pyridazinone] | 87
CCCOc1cc(CNc2cn[nH]c(=O)c2Br)ccc1OC [compound 30] | 78
CCCCOc1cc(CNc2cn[nH]c(=O)c2Cl)ccc1OC [compound 34] | 49
CCOc1cc(CNc2cn[nH]c(=O)c2Cl)ccc1OC [compound 35] | 42

tested on: LTD4; experiment: LTD4 antagonism in isolated guinea-pig trachea with indomethacin (method (ii)); type: cell-based; details: Cavia porcellus, 0.5 h, 10^-6 g/ml test compound, 30 min prior to LTD4
Procedure: (ii) LTD4 antagonism in guinea-pig trachea
Antagonism for LTD4 was determined in isolated guinea-pig trachea prepared as spiral strip. Tracheal preparations were suspended under 1 g tension in 10 ml organ baths containing […] of indomethacin and they were incubated for 1 hr prior to use. Contractile responses to LTD4 (2×10^-8 g/ml) were obtained after the maximal respone to hitamine (10^-4 M). Test compounds dissolved in 100% dimethyl sulfoxide were added to the organ baths (final concentration of 10^-6 g/ml) 30 min prior to LTD4 addition, and then contractile responses to LTD4 were compared with those of control which was obtained from a paired trachea in the absence of test compounds. LTD4 -induced contractions were expressed as a percentage of the maximal response to histamine. The antagonism was determined as follows:
as §1

Structure (SMILES) | inhibition at 1 µg/mL [%]
CCCCCCOc1cc(CNc2cn[nH]c(=O)c2Br)ccc1OC [Compound No. 41] | 87
CCCCCCOc1cc(CNc2cn[nH]c(=O)c2Cl)ccc1OC [compound 40] | 99
CCCCCCCOc1cc(CNc2cn[nH]c(=O)c2Cl)ccc1OC [compound 42] | 96
CCCCCCCOc1cc(CNc2cn[nH]c(=O)c2Br)ccc1OC [compound 43] | 78
COc1ccc(CNc2cnn(-c3ccccc3)c(=O)c2Cl)cc1 [compound 44] | 20
COc1ccc(CNc2cnn(Cc3ccccc3)c(=O)c2Cl)cc1 [compound 45] | 23
CCOc1cc(CNc2cnn(C3CCCC3)c(=O)c2Cl)ccc1OC [compound 46] | 38
C=CCn1ncc(NCc2ccc(OC)c(OCCC)c2)c(Cl)c1=O [compound 47] | 31
C=CCn1ncc(NCc2ccc(OC)c(OCC)c2)c(Cl)c1=O [compound 48] | 28
CCOc1cc(CNc2cnn(-c3ccccc3)c(=O)c2Cl)ccc1OC [compound 49] | 42
CCOc1cccc(CNc2cnn(Cc3ccccc3)c(=O)c2Cl)c1 [compound 50] | 30
Cc1ccc(CNc2cn[nH]c(=O)c2Cl)c(C)c1 [compound 52] | 22
Cc1ccc(CNc2cn[nH]c(=O)c2Br)c(C)c1 [compound 53] | 37
COc1ccc(CNc2cn[nH]c(=O)c2Cl)cc1OCc1ccccc1 [compound 54] | 44

tested on: antigen-induced anaphylactic bronchoconstriction in passively sensitized guinea-pig; experiment: Anaphylactic bronchoconstriction in passively sensitized guinea-pig, i.v. test; type: in vivo; details: i.v. 2 mg/kg, 1 min prior to EA challenge (10 mg/kg)
Procedure: (§2) (iii) Effect on anaphylactic bronchoconstriction in passively sensitized guinea-pig
Male guinea-pigs (350-450 g) were passively sensitized with intravenous (i.v.) injection of 0.125 ml rabbit anti-EA (egg albumin) serum (Cappel Laboratories) 1 to 2 days preceding the experiment. […] Sensitized guinea-pigs were anaesthetized with intraperitoneal injection of urethane (1.5 g/kg). The right jugular vein was cannulated for the administration of the all agents and trachea was cannulated to record total pulmonary resistance. Guinea-pigs were artificially ventilated by a small animal respirator (Shinano, Model SN-480-7) set at a stroke volume of 4.5 ml and a rate of 50 breaths per min. […] The increase in air overflow volume was expresssed as a percentage of the maximum bronchoconstriction obtained by clamping off the trachea. Following surgical preparation, the animals were pretreated with indomethacin (0.2 mg/kg, 10 min), pyrilamine (2 mg/kg, 6 min) and propanolol (0.1 mg/kg, 5 min) prior to the EA challenge (0.1 or 10 mg/kg). All test compounds were administered intraveneously or orally before the EA challenge. Inhibition (%) of bronchoconstriction was determined as follows: Inhibition (%)=(1.0%-maximum bronchoconstriction in test/% maximum bronchoconstriction in control)×100. […] The number of test animals was 4 in the i.v. test and 6 in the p.o. test.
(a) The i.v. test: A test compound (2 mg/kg) was suspended or dissolved in 3% Tween 80 and intraveneously administered 1 min prior to the EA challlenge (10 mg/kg).

Structure (SMILES) | Inhibition (%) of bronchoconstriction [%]
CCCOc1cc(CNc2cnn(C)c(=O)c2Cl)ccc1OC [Compound No. 12] | 31
CN(C)c1ccc(CNc2cn[nH]c(=O)c2Cl)cc1 [compound 25] | 27

tested on: antigen-induced anaphylactic bronchoconstriction in passively sensitized guinea-pig; experiment: Anaphylactic bronchoconstriction in passively sensitized guinea-pig, p.o. test; type: in vivo; details: p.o. 50 mg/kg, 2 hours prior to EA challenge (0.2 mg/kg)
Procedure: as §2
Male guinea-pigs (350-450 g) were passively sensitized with intravenous (i.v.) injection of 0.125 ml rabbit anti-EA (egg albumin) serum (Cappel Laboratories) 1 to 2 days preceding the experiment. Antigen-induced anaphylactic bronchoconstrictions were measured by modified method of Konzett and Rossler (Arch. Exp. Path. Pharmak., 195, 71, 1940). Sensitized guinea-pigs were anaesthetized with intraperitoneal injection of urethane (1.5 g/kg). The right jugular vein was cannulated for the administration of the all agents and trachea was cannulated to record total pulmonary resistance. Guinea-pigs were artificially ventilated by a small animal respirator (Shinano, Model SN-480-7) set at a stroke volume of 4.5 ml and a rate of 50 breaths per min. The change in pulmonary resistance was measured with a pressure transducer (Nihon Kohden, Model TP-602T) connected to a T-tube on the tracheal cannula. The increase in air overflow volume was expresssed as a percentage of the maximum bronchoconstriction obtained by clamping off the trachea. Following surgical preparation, the animals were pretreated with indomethacin (0.2 mg/kg, 10 min), pyrilamine (2 mg/kg, 6 min) and propanolol (0.1 mg/kg, 5 min) prior to the EA challenge (0.1 or 10 mg/kg). All test compounds were administered intraveneously or orally before the EA challenge. Inhibition (%) of bronchoconstriction was determined as follows: Inhibition (%)=(1.0%-maximum bronchoconstriction in test/% maximum bronchoconstriction in control)×100. The maximum bronchoconstriction was btained within 30 min after the EA challenge. The number of test animals was 4 in the i.v. test and 6 in the p.o. test.
(b) The p.o. test: A test compound was suspended in 5% gum arabic and orally administered 2 hours prior to the EA challenge (0.2 mg/kg). The reaction of the control was 62±6%.

Structure (SMILES) | Inhibition (%) of bronchoconstriction [%]
CCCOc1cc(CNc2cn[nH]c(=O)c2Cl)ccc1OC [Compound No. 32] | 71
CCCOc1cc(CNc2cn[nH]c(=O)c2Br)ccc1OC [compound 30] | 65

tested on: ddY strain male mice; experiment: Acute toxicity test, intraperitoneal (Test method-(1)); type: in vivo; details: i.p. 200 mg/kg, 7 days
Procedure: The lethal ratio was determined in ddY strain male mice (4 weeks old) at 7 days after the intraperitoneal injection of test compounds.

Structure (SMILES) | Lethal ratio (Death number/Experimental number)
CCCOc1cc(CNc2cnn(C)c(=O)c2Cl)ccc1OC [Compound No. 12] | 0/2

same assay, conditions: i.p. 400 mg/kg, 7 days

Structure (SMILES) | Lethal ratio (Death number/Experimental number)
CCCOc1cc(CNc2cnn(C)c(=O)c2Cl)ccc1OC [Compound No. 12] | 0/1
